The source made the active and inactive calls. Non-standard residues stand in square brackets, D forms with d. Residues, ends and D or L forms follow the SMILES beside them. ξ: configuration not given here. *: point of attachment. ξF = NC(Cc1ccccc1)C(=O)O; Cbz = O=C(OCc1ccccc1)*
Tests used:
cells [1] = format: functional, cell-based
cells [2] = format: functional, cell-based; remark: listed apart in the source
[3] = biological target: T1, Ubiquitin-conjugating enzyme E2 N (Homo sapiens, UniProt P61088); format: functional;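 further: Dose-response confirmation in a TR-FRET assay detecting UBC13-driven polyubiquitin chain formation, inhibition measured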
T1 sequence (P61088 whole entry): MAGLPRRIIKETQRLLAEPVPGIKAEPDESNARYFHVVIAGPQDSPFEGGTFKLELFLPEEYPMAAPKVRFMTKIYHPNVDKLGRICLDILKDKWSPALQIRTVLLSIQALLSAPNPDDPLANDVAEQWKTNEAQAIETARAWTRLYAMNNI

[4] = P. falciparum Dd2 growth inhibitors, dose response, SYBR Green, cherry-picked samples (AID 1159567); format: functional, cell-based
[5] = biological target: T2, Heat shock factor protein 1 (Mus musculus, UniProt P38532); assay: inhibition of MG132-induced HSE-luciferase signal, confirmation, cell-based, NIH3T3, luminescence, dose retest (AID 2382); format: functional;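 further: NIH3T3 fibroblasts with HSF1-driven luciferase reporter stressed by proteasome inhibitor MG132; luminescence from HSF1-driven luciferase expression after 8 hours of MG132 stress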
T2 sequence (P38532 whole entry): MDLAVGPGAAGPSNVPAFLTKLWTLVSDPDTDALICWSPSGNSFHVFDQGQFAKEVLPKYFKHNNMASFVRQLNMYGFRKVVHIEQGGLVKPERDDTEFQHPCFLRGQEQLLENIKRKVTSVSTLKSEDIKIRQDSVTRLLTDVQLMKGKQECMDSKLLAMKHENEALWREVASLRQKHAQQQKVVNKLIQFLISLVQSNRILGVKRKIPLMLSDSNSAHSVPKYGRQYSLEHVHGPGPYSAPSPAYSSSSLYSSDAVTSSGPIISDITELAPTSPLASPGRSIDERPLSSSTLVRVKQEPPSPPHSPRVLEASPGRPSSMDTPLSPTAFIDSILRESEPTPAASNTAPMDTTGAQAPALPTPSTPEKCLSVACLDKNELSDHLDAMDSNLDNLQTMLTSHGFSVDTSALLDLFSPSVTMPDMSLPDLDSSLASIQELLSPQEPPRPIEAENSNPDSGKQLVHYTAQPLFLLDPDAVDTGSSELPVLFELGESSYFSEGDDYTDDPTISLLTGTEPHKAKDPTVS

Protein skinhead-1 = biological target: T3, Protein skinhead-1 (Caenorhabditis elegans, UniProt P34707); format: functional
T3 sequence (P34707 whole entry): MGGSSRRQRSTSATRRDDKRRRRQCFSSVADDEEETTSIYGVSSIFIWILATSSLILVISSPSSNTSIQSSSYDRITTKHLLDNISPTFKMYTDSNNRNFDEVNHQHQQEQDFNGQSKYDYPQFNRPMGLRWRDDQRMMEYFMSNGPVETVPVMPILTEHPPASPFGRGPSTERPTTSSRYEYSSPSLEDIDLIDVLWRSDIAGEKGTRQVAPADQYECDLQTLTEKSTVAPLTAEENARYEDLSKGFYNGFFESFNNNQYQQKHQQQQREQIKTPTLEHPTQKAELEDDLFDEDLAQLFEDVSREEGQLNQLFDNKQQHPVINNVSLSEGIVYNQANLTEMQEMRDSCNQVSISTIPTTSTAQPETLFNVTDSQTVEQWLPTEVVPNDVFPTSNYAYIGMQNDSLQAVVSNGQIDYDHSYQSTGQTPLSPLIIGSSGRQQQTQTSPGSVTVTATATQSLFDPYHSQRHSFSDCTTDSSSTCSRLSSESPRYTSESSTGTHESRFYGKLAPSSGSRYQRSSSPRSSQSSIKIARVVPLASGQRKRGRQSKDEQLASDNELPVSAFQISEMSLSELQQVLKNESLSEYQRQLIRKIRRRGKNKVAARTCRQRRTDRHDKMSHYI

H9c2 = assay: cells; format: functional, cell-based; conditions: Rattus norvegicus, H9c2, Myocardium;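 further: confirmatory concentration-response retest of ultra-high-throughput screening hits for modulation of myocardial damage; cell death induced by hydrogen peroxide oxidative stress; compound pretreatment for 60 min then peroxide exposure for 2 h; potency is for protecting the cells against peroxide damage rather than for killing them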
[6] = biological target: FAD-linked sulfhydryl oxidase ALR (Homo sapiens, UniProt P55789); assay: inhibitors of human ALR sulfhydryl oxidase, dose response, biochemical, H2O2 detection, luminescence, cherry-pick (AID 493248)
Sequence of FAD-linked sulfhydryl oxidase ALR (P55789 whole entry): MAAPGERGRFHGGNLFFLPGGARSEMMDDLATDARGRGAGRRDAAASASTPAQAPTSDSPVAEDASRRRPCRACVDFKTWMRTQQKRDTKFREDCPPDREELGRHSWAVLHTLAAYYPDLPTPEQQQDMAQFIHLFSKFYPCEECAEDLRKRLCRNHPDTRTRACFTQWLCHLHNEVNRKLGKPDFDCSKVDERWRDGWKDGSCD

[7] = biological target: Luciferin 4-monooxygenase (Photinus pyralis, UniProt P08659); assay: firefly luciferase enzyme inhibitors, dose response, biochemical, luminescence (AID 1891)
Sequence of Luciferin 4-monooxygenase (P08659 whole entry): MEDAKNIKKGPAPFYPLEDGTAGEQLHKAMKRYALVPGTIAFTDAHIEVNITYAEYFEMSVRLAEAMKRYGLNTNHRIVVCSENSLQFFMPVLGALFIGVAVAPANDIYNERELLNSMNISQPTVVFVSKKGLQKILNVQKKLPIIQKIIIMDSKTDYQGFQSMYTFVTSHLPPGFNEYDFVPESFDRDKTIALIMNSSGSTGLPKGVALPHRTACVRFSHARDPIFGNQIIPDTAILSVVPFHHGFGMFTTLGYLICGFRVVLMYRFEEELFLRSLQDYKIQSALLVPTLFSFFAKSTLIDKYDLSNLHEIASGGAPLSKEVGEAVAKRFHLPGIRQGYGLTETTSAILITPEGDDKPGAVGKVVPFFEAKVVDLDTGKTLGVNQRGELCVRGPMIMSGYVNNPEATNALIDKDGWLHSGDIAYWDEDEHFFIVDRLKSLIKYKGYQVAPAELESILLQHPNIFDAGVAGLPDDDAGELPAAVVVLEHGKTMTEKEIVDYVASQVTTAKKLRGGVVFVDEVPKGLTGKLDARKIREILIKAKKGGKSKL

[8] = Luminescence Cell-Based Dose Confirmation HTS to Identify Inhibitors of Platelet Dense Granule Release. [Related pubchem assays: 1663 (Primary HTS), 1678 (Summary of Project)]; format: functional
[9] = biological target: T4, Corticotropin-releasing factor receptor 2/Corticotropin-releasing factor-binding protein (Homo sapiens, UniProt P24387+Q13324); assay: activators of CRF receptor 2 with binding protein – uHTS hits, confirmation (AID 602473); format: functional; conditions: read-out: EC50_Mean
T4 sequence (Q13324 whole entry): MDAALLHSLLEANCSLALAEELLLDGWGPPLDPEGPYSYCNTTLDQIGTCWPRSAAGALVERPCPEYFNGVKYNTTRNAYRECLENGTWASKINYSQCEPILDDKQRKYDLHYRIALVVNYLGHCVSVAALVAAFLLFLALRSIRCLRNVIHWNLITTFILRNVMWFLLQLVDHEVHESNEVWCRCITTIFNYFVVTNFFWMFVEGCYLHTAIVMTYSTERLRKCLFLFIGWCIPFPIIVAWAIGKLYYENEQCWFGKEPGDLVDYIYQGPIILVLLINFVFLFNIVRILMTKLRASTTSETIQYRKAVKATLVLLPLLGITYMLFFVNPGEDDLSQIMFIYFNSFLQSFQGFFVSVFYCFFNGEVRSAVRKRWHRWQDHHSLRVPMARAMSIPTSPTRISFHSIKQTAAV
T4 sequence (P24387 whole entry): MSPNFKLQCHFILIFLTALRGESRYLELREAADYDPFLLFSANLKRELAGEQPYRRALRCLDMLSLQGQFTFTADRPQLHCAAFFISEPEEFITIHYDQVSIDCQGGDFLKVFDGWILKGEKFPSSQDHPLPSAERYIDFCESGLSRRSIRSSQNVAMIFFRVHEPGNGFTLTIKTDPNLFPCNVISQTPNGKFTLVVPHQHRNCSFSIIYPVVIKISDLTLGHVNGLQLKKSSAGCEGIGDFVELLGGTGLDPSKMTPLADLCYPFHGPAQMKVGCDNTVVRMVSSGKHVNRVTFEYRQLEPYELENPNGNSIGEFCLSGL

Nonstructural protein 1 = Nonstructural protein 1 (Influenza A virus, UniProt Q194T2); format: functional, Influenza A virus (A/California/07/2009(H1N1))
Sequence of Nonstructural protein 1 (Q194T2 whole entry): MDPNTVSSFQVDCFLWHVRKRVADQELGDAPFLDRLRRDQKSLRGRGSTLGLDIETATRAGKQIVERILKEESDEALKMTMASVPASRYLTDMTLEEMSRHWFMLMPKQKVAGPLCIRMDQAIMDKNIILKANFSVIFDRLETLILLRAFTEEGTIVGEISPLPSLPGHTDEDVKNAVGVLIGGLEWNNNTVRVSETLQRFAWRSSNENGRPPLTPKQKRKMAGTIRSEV

[10] = biological target: T5, Rac GTPase-activating protein 1 (Homo sapiens, UniProt Q9H0H5); assay: MgcRacGAP GTPase-activating activity inhibitors, confirmation, biochemical, ADP Hunter fluorescence, primary and confirmatory (AID 624330); format: functional
T5 sequence (Q9H0H5 whole entry): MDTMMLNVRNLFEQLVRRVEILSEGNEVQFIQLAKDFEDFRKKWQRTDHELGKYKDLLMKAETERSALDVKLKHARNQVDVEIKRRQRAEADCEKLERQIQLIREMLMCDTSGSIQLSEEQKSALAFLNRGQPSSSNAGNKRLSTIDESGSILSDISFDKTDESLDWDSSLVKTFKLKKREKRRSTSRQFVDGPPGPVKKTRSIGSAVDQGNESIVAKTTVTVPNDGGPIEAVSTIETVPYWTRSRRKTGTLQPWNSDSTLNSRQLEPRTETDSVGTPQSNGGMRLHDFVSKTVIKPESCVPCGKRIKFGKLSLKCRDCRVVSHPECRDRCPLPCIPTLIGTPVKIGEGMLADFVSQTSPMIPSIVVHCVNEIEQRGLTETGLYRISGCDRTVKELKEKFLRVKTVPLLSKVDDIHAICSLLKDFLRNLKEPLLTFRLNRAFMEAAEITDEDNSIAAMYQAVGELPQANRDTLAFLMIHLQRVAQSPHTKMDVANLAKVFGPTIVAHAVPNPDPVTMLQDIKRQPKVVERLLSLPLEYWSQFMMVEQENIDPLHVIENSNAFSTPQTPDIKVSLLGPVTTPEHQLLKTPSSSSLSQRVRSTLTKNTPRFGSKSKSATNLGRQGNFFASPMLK

Paired box protein Pax-8 = Paired box protein Pax-8 (Homo sapiens, UniProt Q06710); assay: inhibitors of PAX8-driven TPO luciferase reporter, dose response, RMG-I cells, cherry-pick (AID 687027); format: functional, cell-based;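 further: luciferase reporter driven by Pax8 target thyroperoxidase promoter measured by SteadyGlo luminescence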
Sequence of Paired box protein Pax-8 (Q06710 whole entry): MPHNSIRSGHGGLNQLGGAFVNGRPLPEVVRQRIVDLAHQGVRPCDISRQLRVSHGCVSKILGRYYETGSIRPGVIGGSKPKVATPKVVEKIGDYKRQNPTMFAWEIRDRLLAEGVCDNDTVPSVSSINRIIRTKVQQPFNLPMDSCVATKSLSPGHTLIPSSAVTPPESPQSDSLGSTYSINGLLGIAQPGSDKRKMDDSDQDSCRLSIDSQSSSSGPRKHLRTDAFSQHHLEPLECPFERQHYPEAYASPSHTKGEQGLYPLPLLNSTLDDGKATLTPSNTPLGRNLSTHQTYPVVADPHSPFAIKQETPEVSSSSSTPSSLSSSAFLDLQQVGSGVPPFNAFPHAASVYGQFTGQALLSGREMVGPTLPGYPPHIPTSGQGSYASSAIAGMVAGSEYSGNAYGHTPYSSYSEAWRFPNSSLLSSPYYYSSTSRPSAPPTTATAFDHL

Compound: O=C1NC(=O)/C(=C/c2ccc(OS(=O)(=O)c3ccc(F)cc3F)cc2)N1
- EC50 (cells [1]): > 350 µM (not active)
- EC50 (cells [2]): > 350 µM (not active)

Compound: CCOC(=O)c1cc(-c2ccccc2)nc2ccc(C)cc12 [NEOCINCHOPHEN]
- IC50 [3]: > 20 µM (inactive)

Compound: COc1ccc(NC(=O)Nc2ccc3c(c2)CC(=O)N([C@@H](C)CO)C[C@@H](C)[C@H](CN(C)CC2CCCCC2)O3)cc1
- AC50 [4]: 4.85 µM (active)

Compound: CO[C@@H]1CN(C)C(=O)c2ccc(NC(=O)C3CCC3)cc2OC[C@@H](C)N(CC2CCCCC2)C[C@H]1C
- AC50 [4]: 4.4 µM (active)

Compound: NC(=O)c1nsc(C(=O)N(c2cccc(F)c2)C(C(=O)NC2CCCC2)c2ccco2)c1N (stereo unspecified)
- EC50 [5]: > 195 µM (not active)
- IC50 [3]: > 20 µM (inactive)

Compound: CC(C)(C)OC(=O)NCC12C=CC(O1)C1C(=O)N(Cc3ccccc3)C(=O)C12 (stereo unspecified)
- IC50 (Protein skinhead-1): > 100 µM (inactive)
- IC50 (H9c2): > 79 µM (inactive)

Compound: COc1cccc(-n2c(S)nnc2CCn2nc(C)c([N+](=O)[O-])c2C)c1
- AC50 [6]: 10.6 µM (active)

Compound: CCc1nnc(NC(=O)[C@@H](NC(=O)c2ccc(OC)cc2)C(C)C)s1
- EC50 [7]: > 112 µM (not active)
- EC50 [8]: > 112 µM (not active)

Compound: COC(=O)Cc1cc(O)nc(Nc2nc3ccccc3o2)n1
- IC50 [3]: > 20 µM (inactive)

Compound: CCCCn1/c(=N/C(=O)c2cccnc2)c(C#N)cc2c(=O)n3cccc(C)c3nc21
- EC50 [9]: > 53 µM (inactive)
- IC50 (H9c2): 26.2 µM (active)

Compound: COc1ccc(CN2CCNC(=O)C2CC(=O)NC2CCCC2)c(OC)c1 (stereo unspecified)
- EC50 (cells [1]): > 350 µM (not active)
- EC50 (cells [2]): > 350 µM (not active)

Compound: CN1CCCCN2[C@@H](CO)[C@@H](c3ccc(-c4cccnc4)cc3)[C@@H]2C1
- AC50 [4]: 6.76 µM (active)

Compound: CN(CC(=O)Nc1ccccc1Oc1ccccc1)Cc1ccccc1F
- EC50 (cells [1]): > 350 µM (not active)
- EC50 (cells [2]): > 350 µM (not active)

Compound: COc1ccc(C2C(C#N)=C(N)Nc3onc(C(C)(C)C)c32)c(OC)c1 (stereo unspecified)
- IC50 (Nonstructural protein 1): > 100 µM (active)

Compound: CCOc1ccc(-c2nc(CCl)cs2)cc1
- EC50 [7]: 40.7 µM (active)
- EC50 [8]: > 112 µM (not active)

Compound: Cc1cccc(N2CCN(C(=O)c3ccncc3)CC2C)c1 (stereo unspecified)
- AC50 [6]: 9.32 µM (active)

Compound: Cc1ccc(N2C(=O)CSC2c2cccnc2)cc1F (stereo unspecified)
- AC50 [6]: 0.193 µM (active)

Compound: Cc1cccc(-c2noc(CN(C)S(=O)(=O)c3cc(Cl)ccc3Cl)n2)c1
- EC50 (cells [1]): > 350 µM (not active)
- EC50 (cells [2]): > 350 µM (not active)

Compound: CCOC(=O)C(Cc1ccccc1)NC(=O)CNC(=O)CNC(=O)OCc1ccccc1 (stereo not drawn) (Cbz-Gly-Gly-[ξF]-OEt)
- EC50 [7]: > 112 µM (not active)
- EC50 [8]: 25 µM (active)

Compound: Sc1nnc(-c2cccc3ccccc23)n1-c1cccnc1
- AC50 [6]: 8.24 µM (active)

Compound: COc1cccc(CNC(=O)c2cc(S(=O)(=O)N3CCOCC3)cn2C)c1
- EC50 [7]: > 112 µM (not active)
- EC50 [8]: > 112 µM (not active)

Compound: Cc1cccc(C)c1NC(=O)C1CCCN1S(=O)(=O)c1ccc(-c2ccc(O)nn2)s1 (stereo unspecified)
- EC50 [7]: > 112 µM (not active)
- EC50 [8]: 47.1 µM (active)

Compound: Cc1ccc(-c2csc(NC(=O)C[n+]3cc(-c4ccc(C)cc4)n4c3CCC4)n2)cc1
- IC50 [3]: > 20 µM (inactive)

Compound: Cc1ccc2cc(CN(Cc3ccco3)C(=O)C3CCCCC3)c(O)nc2c1C
- EC50 [7]: > 112 µM (not active)
- EC50 [8]: > 112 µM (not active)

Compound: COc1cc2c(cc1OC)C(c1ccccc1)N(S(C)(=O)=O)CC2 (stereo unspecified)
- EC50 (cells [1]): > 350 µM (not active)
- EC50 (cells [2]): > 350 µM (not active)

Compound: Cc1cccc(Sc2c([N+](=O)[O-])ncn2C)c1
- AC50 [6]: 0.265 µM (active)

Compound: COc1ccc2c3c([nH]c2c1)[C@H](CO)N(Cc1ccccc1F)CC31CN(C(=O)C2CCCC2)C1
- AC50 [4]: 9.56 µM (active)

Compound: CN(C)c1cccc(C(=O)NCc2ccccc2)c1
- AC50 [6]: 5.25 µM (active)

Compound: CCOC(=O)C1(Cc2cccc(OC)c2)CCN(CC=C(C)C)CC1
- EC50 [7]: > 112 µM (not active)
- EC50 [8]: 21.4 µM (active)

Compound: N#Cc1ccc(-c2ccc([C@@H]3[C@@H]4CN(S(=O)(=O)Cc5ccccc5)C[C@H]3N4)cc2)cc1
- AC50 [4]: 6.48 µM (active)

Compound: CCCc1cc(C(=O)N2CCCC(N3CCN(c4ccc(F)cc4)CC3)C2)no1 (stereo unspecified)
- AC50 [6]: > 100 µM (inactive)

Compound: Cc1cccc(NC(=O)c2ccc(NCCO)c([N+](=O)[O-])c2)n1
- EC50 [7]: > 112 µM (not active)
- EC50 [8]: 25.5 µM (active)

Compound: Cc1cc(Br)cc(/C=N/c2ccc(N3CCOCC3)cc2)c1O
- IC50 [10]: 14.6 µM (active)
- IC50 (H9c2): 19.7 µM (active)

Compound: C[C@H]1CN([C@@H](C)CO)C(=O)Cc2cc(NC(=O)Nc3ccc(C(F)(F)F)cc3)ccc2O[C@H]1CN(C)C(=O)NC1CCCCC1
- AC50 (Paired box protein Pax-8): 10.2 µM (active)

Compound: COc1cccc(NC(=O)N2CCN(c3cccc(C)c3)C(C)C2)c1 (stereo unspecified)
- AC50 [6]: 6.28 µM (active)

Compound: CC(C)N(c1ccccc1)c1ncnc(NCCC(=O)O)c1[N+](=O)[O-]
- EC50 (cells [1]): > 350 µM (not active)
- EC50 (cells [2]): > 350 µM (not active)

Compound: CCOC(=O)C1CCN(c2ncnc3cc(OC)c(OC)cc23)CC1
- EC50 [7]: > 112 µM (not active)
- EC50 [8]: 9.14 µM (active)
